Laboratory results taken from patent US8304419B2, “Chemical compounds” (priority 2007, dated 2012).
Where a name gives a salt, the structure may show the parent alone.

Tested on: HIV wild type (WTRVA)
Assay: HeLa cell assay, wild type virus (WTRVA)
Type: cell-based, HIV-1
Set-up: scale not given here
Conditions: HeLa-CD4-LTR-β-gal cells, wild type virus; trifluoroacetate; read-out: WTRVA activity level

Structure (SMILES)	IC50 [nM]
N#Cc1cc(Cl)cc(Oc2c(Cl)ccc(CNC(=O)c3[nH]c4ccccc4c3Br)c2F)c1 [Example 54, 3-bromo-N-({4-chloro-3-[(3-chloro-5-cyanophenyl)oxy]-2-fluorophenyl}methyl)-1H-indole-2-carboxamide trifluoroacetate]	< 10

Same assay, conditions: Human immunodeficiency virus 1, HeLa, HeLa cell assay; read-out: IC50 against WTRVA

Structure (SMILES)	IC50 [nM]
C=Cc1cc(C#N)cc(Oc2c(Cl)ccc(CNC(=O)c3[nH]c(C)nc3Cl)c2F)n1 [Example 272, 4-Chloro-N-({4-chloro-3-[(4-cyano-6-ethenyl-2-pyridinyl)oxy]-2-fluorophenyl}methyl)-2-methyl-1H-imidazole-5-carboxamide]	< 10
N#Cc1cc(Oc2c(Cl)ccc(CNC(=O)c3[nH]cnc3Cl)c2F)cc(C(F)F)c1 [Example 309, 4-chloro-N-[(4-chloro-3-{[3-cyano-5-(difluoromethyl)phenyl]oxy}-2-fluorophenyl)methyl]-1H-imidazole-5-carboxamide]	< 10
N#Cc1cc(Cl)cc(Oc2c(Br)ccc(CNC(=O)c3[nH]cnc3Br)c2F)c1 [Example 377, 4-bromo-N-({4-bromo-3-[(3-chloro-5-cyanophenyl)oxy]-2-fluorophenyl}methyl)-1H-imidazole-5-carboxamide]	< 10

Same assay, conditions: Human immunodeficiency virus 1, HeLa, HeLa-CD4-LTR-β-gal cells, wild type virus; read-out: WTRVA activity level

Structure (SMILES)	IC50 [nM]
COc1ccc2[nH]c3c(c2c1)CCN(Cc1ccc(Cl)c(Oc2cc(Cl)cc(C#N)c2)c1F)C3=O [Example 38, 3-chloro-5-[(6-chloro-2-fluoro-3-{[6-(methyloxy)-1-oxo-1,3,4,9-tetrahydro-2H-β-carbolin-2-yl]methyl}phenyl)oxy]benzonitrile]	10 to 1000
N#Cc1cc(Cl)cc(Oc2c(Cl)ccc(CNC(=O)c3cccnc3)c2F)c1 [Example 94, N-({4-chloro-3-[(3-chloro-5-cyanophenyl)oxy]-2-fluorophenyl}methyl)-3-pyridinecarboxamide trifluoroacetate]	10 to 1000
N#Cc1cc(Cl)cc(Oc2c(Cl)ccc(CNC(=O)c3cc4cc(Cl)ccc4o3)c2F)c1 [Example 49, 5-chloro-N-({4-chloro-3-[(3-chloro-5-cyanophenyl)oxy]-2-fluorophenyl}methyl)-1-benzofuran-2-carboxamide trifluoroacetate]	> 1000
Cn1c(C(=O)NCc2ccc(Cl)c(Oc3cc(Cl)cc(C#N)c3)c2F)cc2ccccc21 [Example 45, N-({4-chloro-3-[(3-chloro-5-cyanophenyl)oxy]-2-fluorophenyl}methyl)-1-methyl-1H-indole-2-carboxamide]	10 to 1000
N#Cc1cc(Cl)cc(Oc2c(Cl)ccc(CNC(=O)c3c[nH]cn3)c2F)c1 [Example 84, N-({4-chloro-3-[(3-chloro-5-cyanophenyl)oxy]-2-fluorophenyl}methyl)-1H-imidazole-4-carboxamide trifluoroacetate]	< 10
COc1n[n+]([O-])cc2cc(C(=O)NCc3ccc(Cl)c(Oc4cc(Cl)cc(C#N)c4)c3F)[nH]c12 [Example 82, N-({4-chloro-3-[(3-chloro-5-cyanophenyl)oxy]-2-fluorophenyl}methyl)-7-(methyloxy)-1H-pyrrolo[2,3-d]pyridazine-2-carboxamide 5-oxide trifluoroacetate]	10 to 1000
CSc1ncccc1C(=O)NCc1ccc(Cl)c(Oc2cc(Cl)cc(C#N)c2)c1F [Example 86, N-({4-chloro-3-[(3-chloro-5-cyanophenyl)oxy]-2-fluorophenyl}methyl)-2-(methylthio)-3-pyridinecarboxamide trifluoroacetate]	10 to 1000
CCCc1nc(Cl)c(C(=O)NCc2ccc(Cl)c(Oc3cc(Cl)cc(C#N)c3)c2F)[nH]1 [Example 139, 4-chloro-N-({4-chloro-3-[(3-chloro-5-cyanophenyl)oxy]-2-fluorophenyl}methyl)-2-propyl-1H-imidazole-5-carboxamide]	< 10
COc1ccc2[nH]c(C(=O)NCc3ccc(Cl)c(Oc4cc(Cl)cc(C#N)c4)c3)cc2c1 [Example 10, N-({4-chloro-3-[(3-chloro-5-cyanophenyl)oxy]phenyl}methyl)-5-(methyloxy)-1H-indole-2-carboxamide]	10 to 1000
